{"source": "patent US10786477B2", "about": "“Formulations having anti-inflammatory activity and antimicrobial activity against gram-positive bacteria” (NATUREZA, INC., priority 2014, dated 2020)", "key": {"S. aureus": {"system": "S. aureus", "test": "MIC, CLSI broth microdilution M07", "format": "cell-based, Staphylococcus aureus"}, "[1]": {"system": "strains of Staphylococcus", "test": "Bacterial growth in presence of first-example suspensions", "format": "cell-based, Staphylococcus spp.", "conditions": "first example: optically clear suspensions of 1 wt.% active component combined with 2% bile", "text": "In these examples, the optically clear suspensions were combined with 2% bile when evaluating activity against various bacteria."}, "L. acidophilus": {"system": "L. acidophilus", "test": "MIC, CLSI broth microdilution M07", "format": "cell-based", "conditions": "Lactobacillus acidophilus; Table 2; active component range 0.08-8 mg/ml; >8 = no inhibitory effect"}, "S. mutans": {"system": "S. mutans", "test": "MIC, CLSI broth microdilution M07", "format": "cell-based, Streptococcus mutans"}, "Mycobacterium": {"system": "Mycobacterium", "test": "MIC, CLSI broth microdilution", "format": "cell-based", "conditions": "Table 1; active component in compositions of first example; range 0.08-5 wt.%"}, "C. difficile": {"system": "C. difficile", "test": "MIC, CLSI broth microdilution M07", "format": "cell-based, Clostridium difficile"}, "M. bovis": {"system": "M. bovis", "test": "microbe, parasite or virus in culture", "format": "cell-based"}, "S. epidemidis": {"system": "S. epidemidis", "test": "MIC, CLSI broth microdilution M07", "format": "cell-based, Staphylococcus epidermidis"}, "Lactobacillus spp.": {"system": "Lactobacillus spp.", "test": "MIC, CLSI broth microdilution M07", "format": "cell-based"}, "C. albicans": {"system": "C. albicans", "test": "MIC of fungi, CLSI broth microdilution M27", "format": "cell-based", "conditions": "Candida albicans; Table 2; active component range 0.08-8 mg/ml"}, "S. mitis": {"system": "S. mitis", "test": "MIC, CLSI broth microdilution M07", "format": "cell-based, Streptococcus mitis"}, "E coli": {"system": "E coli", "test": "MIC, CLSI broth microdilution M07", "format": "cell-based, Escherichia coli"}, "S. pyogenes": {"system": "S. pyogenes", "test": "MIC, CLSI broth microdilution M07", "format": "cell-based, Streptococcus pyogenes"}, "Candida": {"system": "Candida", "test": "MIC of fungi, CLSI broth microdilution M27", "format": "cell-based"}, "Bifidobacterium": {"system": "Bifidobacterium", "test": "MIC, CLSI broth microdilution M07", "format": "cell-based"}, "bacteria": {"system": "bacteria", "conditions": "background, cited from earlier work; for antibacterial / antimicrobial activity: compared with lauric acid"}, "B. bifidum": {"system": "B. bifidum", "test": "MIC, CLSI broth microdilution M07", "format": "cell-based", "conditions": "Bifidobacterium bifidum; Table 2; active component range 0.08-8 mg/ml; >8 = no inhibitory effect"}, "[2]": {"conditions": "Staphylococcus aureus, Table 2, active component range 0.08-8 mg/ml, read-out: MIC"}, "[3]": {"conditions": "Table 1, active component in compositions of first example, range 0.08-5 wt.%"}, "[4]": {"conditions": "Table 3, active component range 0.0009-8 μg/ml, values match chitosan-coated liposomes of third example"}, "[5]": {"conditions": "Streptococcus mutans, Table 2, active component range 0.08-8 mg/ml, read-out: MIC"}, "[6]": {"conditions": "Clostridioides difficile, Table 2, active component range 0.08-8 mg/ml, read-out: MIC"}, "[7]": {"conditions": "Mycobacterium tuberculosis variant bovis"}, "[8]": {"conditions": "Table 1, active component in compositions of first example, range 0.08-5 wt.%, >>5% = no inhibitory effect"}, "[9]": {"conditions": "Escherichia coli, Table 2, active component range 0.08-8 mg/ml, >8 = no inhibitory effect, read-out: MIC"}}, "note": "Like-named read-outs stand apart in the source and are kept apart here.", "data": [{"smiles": "CCCCCCCCCCCC(=O)OCC", "note": "[EL, ethyl laurate]", "values": [{"measurement": "MIC", "setting": "S. aureus; [2]", "result": 800, "unit": "µg/mL"}, {"measurement": "MIC", "setting": "S. aureus; [3]", "result": 0.5, "unit": "%"}, {"measurement": "MIC", "setting": "S. aureus; [4]", "result": 0.0018, "unit": "%"}, {"measurement": "effect on bacterial growth", "setting": "[1]", "result": "completely bacteriostatic"}, {"measurement": "MIC", "setting": "L. acidophilus", "result": "> 8000", "unit": "µg/mL"}, {"measurement": "MIC", "setting": "S. mutans; [5]", "result": 800, "unit": "µg/mL"}, {"measurement": "MIC", "setting": "S. mutans; [3]", "result": 0.5, "unit": "%"}, {"measurement": "MIC", "setting": "S. mutans; [4]", "result": 0.0018, "unit": "%"}, {"measurement": "MIC", "setting": "Mycobacterium", "result": 1, "unit": "%"}, {"measurement": "MIC", "setting": "C. difficile; [6]", "result": 800, "unit": "µg/mL"}, {"measurement": "MIC", "setting": "C. difficile; [3]", "result": 0.5, "unit": "%"}, {"measurement": "MIC", "setting": "C. difficile; [4]", "result": 0.0018, "unit": "%"}, {"measurement": "MIC", "setting": "M. bovis; [7]", "result": 2000, "unit": "µg/mL"}, {"measurement": "MIC", "setting": "M. bovis; [4]", "result": 0.0018, "unit": "%"}, {"measurement": "MIC", "setting": "S. epidemidis; [3]", "result": 0.5, "unit": "%"}, {"measurement": "MIC", "setting": "S. epidemidis; [4]", "result": 0.0018, "unit": "%"}, {"measurement": "MIC", "setting": "Lactobacillus spp.; [8]", "result": ">>5%^"}, {"measurement": "MIC", "setting": "Lactobacillus spp.; [4]", "result": ">>5%"}, {"measurement": "MIC", "setting": "C. albicans", "result": "< 80", "unit": "µg/mL"}, {"measurement": "MIC", "setting": "S. mitis; [3]", "result": 0.5, "unit": "%"}, {"measurement": "MIC", "setting": "S. mitis; [4]", "result": 0.0018, "unit": "%"}, {"measurement": "MIC", "setting": "E coli; [9]", "result": "> 8000", "unit": "µg/mL"}, {"measurement": "MIC", "setting": "E coli; [8]", "result": ">>5%^"}, {"measurement": "MIC", "setting": "E coli; [4]", "result": ">>5%"}, {"measurement": "MIC", "setting": "S. pyogenes; [3]", "result": 0.5, "unit": "%"}, {"measurement": "MIC", "setting": "S. pyogenes; [4]", "result": 0.0018, "unit": "%"}, {"measurement": "MIC", "setting": "Candida; [3]", "result": 0.5, "unit": "%"}, {"measurement": "MIC", "setting": "Candida; [4]", "result": 0.0018, "unit": "%"}, {"measurement": "MIC", "setting": "Bifidobacterium; [8]", "result": ">>5%^"}, {"measurement": "MIC", "setting": "Bifidobacterium; [4]", "result": ">>5%"}, {"measurement": "activity relative to lauric acid (times less active)", "setting": "bacteria", "result": "forty times less active"}, {"measurement": "antibacterial / antimicrobial activity", "setting": "bacteria", "result": "little or no antimicrobial activity"}, {"measurement": "MIC", "setting": "B. bifidum", "result": "> 8000", "unit": "µg/mL"}]}, {"smiles": "CCCCCCCCCCCC(=O)OC", "note": "[ML, methyl laurate]", "values": [{"measurement": "MIC", "setting": "S. aureus; [2]", "result": 800, "unit": "µg/mL"}, {"measurement": "MIC", "setting": "S. aureus; [3]", "result": 0.5, "unit": "%"}, {"measurement": "MIC", "setting": "S. aureus; [4]", "result": 0.0018, "unit": "%"}, {"measurement": "effect on bacterial growth", "setting": "[1]", "result": "significantly retarded bacterial growth"}, {"measurement": "MIC", "setting": "L. acidophilus", "result": "> 8000", "unit": "µg/mL"}, {"measurement": "MIC", "setting": "S. mutans; [5]", "result": 800, "unit": "µg/mL"}, {"measurement": "MIC", "setting": "S. mutans; [3]", "result": 0.5, "unit": "%"}, {"measurement": "MIC", "setting": "S. mutans; [4]", "result": 0.0018, "unit": "%"}, {"measurement": "MIC", "setting": "Mycobacterium", "result": 0.5, "unit": "%"}, {"measurement": "MIC", "setting": "C. difficile; [6]", "result": 800, "unit": "µg/mL"}, {"measurement": "MIC", "setting": "C. difficile; [3]", "result": 1, "unit": "%"}, {"measurement": "MIC", "setting": "C. difficile; [4]", "result": 0.0018, "unit": "%"}, {"measurement": "MIC", "setting": "M. bovis; [7]", "result": 2000, "unit": "µg/mL"}, {"measurement": "MIC", "setting": "M. bovis; [4]", "result": 0.0018, "unit": "%"}, {"measurement": "MIC", "setting": "S. epidemidis; [3]", "result": 0.5, "unit": "%"}, {"measurement": "MIC", "setting": "S. epidemidis; [4]", "result": 0.0018, "unit": "%"}, {"measurement": "MIC", "setting": "Lactobacillus spp.; [8]", "result": ">>5%^"}, {"measurement": "MIC", "setting": "Lactobacillus spp.; [4]", "result": ">>5%"}, {"measurement": "MIC", "setting": "C. albicans", "result": "< 80", "unit": "µg/mL"}, {"measurement": "MIC", "setting": "S. mitis; [3]", "result": 0.5, "unit": "%"}, {"measurement": "MIC", "setting": "S. mitis; [4]", "result": 0.0018, "unit": "%"}, {"measurement": "MIC", "setting": "E coli; [9]", "result": "> 8000", "unit": "µg/mL"}, {"measurement": "MIC", "setting": "E coli; [8]", "result": ">>5%^"}, {"measurement": "MIC", "setting": "E coli; [4]", "result": ">>5%"}, {"measurement": "MIC", "setting": "S. pyogenes; [3]", "result": 0.5, "unit": "%"}, {"measurement": "MIC", "setting": "S. pyogenes; [4]", "result": 0.0018, "unit": "%"}, {"measurement": "MIC", "setting": "Candida; [3]", "result": 0.5, "unit": "%"}, {"measurement": "MIC", "setting": "Candida; [4]", "result": 0.0018, "unit": "%"}, {"measurement": "MIC", "setting": "Bifidobacterium; [8]", "result": ">>5%^"}, {"measurement": "MIC", "setting": "Bifidobacterium; [4]", "result": ">>5%"}, {"measurement": "antibacterial / antimicrobial activity", "setting": "bacteria", "result": "some modest antibacterial activity in vitro"}, {"measurement": "MIC", "setting": "B. bifidum", "result": "> 8000", "unit": "µg/mL"}]}]}
